Results from patent US20100130554A1, “USE OF 4-CYCLOPROPYLMETHOXY-N-(3,5-DICHLORO-1-OXIDOPYRIDIN-4-YL)-5-(METHOXY)PYRIDINE-2-CARBOXAMIDE FOR THE TREATMENT OF MOTOR DISORDERS RELATED TO PARKINSON'S DISEASE” (SANOFI-AVENTIS, priority 2007, published 2010).

Tests used:
[1] = system: ferrets; assay: Evaluation of the emetic effects in ferrets after oral gavage; format: in vivo; conditions: observed up to 6 hours
Description: The emetic capacity of 4-cyclopropylmethoxy-N-(3,5-dichloro-1-oxidopyridin-4-yl)-5-(methoxy)pyridine-2-carboxamide was evaluated in ferrets. Two groups of ferrets were used, the first being given the carrier (PEG200) and the second being given the 4-cyclopropylmethoxy-N-(3,5-dichloro-1-oxidopyridin-4-yl)-5-(methoxy)pyridine-2-carboxamide in solution in the carrier (PEG 200), by oral gavage. The animals were observed continually for 2 hours following administration, and then every hour until 6 hours after administration. The clinical signs (in particular, retching and vomiting) were noted.
The emetic capacity of (R)-(−)-rolipram was evaluated in the ferrets. Two groups of ferrets were used, the first being given the carrier (PEG200) and the second being given the […] in solution in the carrier (PEG 200), by oral gavage, at doses of 0.05 mg/kg and of 0.1 mg/kg. The animals were observed continually for the 2 hours following administration, and then once an hour up to 6 hours after the administration. The clinical signs were noted.

[2] = system: dopamine uptake sites; assay: Protection in a model of Parkinson's disease: dopaminergic neuron loss in mice poisoned with MPTP, striatal dopamine uptake sites quantified by GBR12935 binding; format: in vivo; conditions: MPTP-poisoned C57BL6 mice, striatum, gavage twice a day for 17 days, MPTP only = 58%, p<0.01 vs MPTP only
Description: The effects of the 4-cyclopropylmethoxy-N-(3,5-dichloro-1-oxidopyridin-4-yl)-5-(methoxy)pyridine-2-carboxamide used according to the invention were evaluated in mice using a model of dopaminergic neuron loss.
Protection in a Model of Parkinson's disease (Dopaminergic Neuron Loss in Mice Poisoned with MPTP (1-methyl-4-phenyl-1,2,3,6-tetrahydropyridine):
C57BL6 mice are given 4 intraperitoneal injections of 20 mg/kg of MPTP, each 2 hours apart. The 4-cyclopropylmethoxy-N-(3,5-dichloro-1-oxidopyridin-4-yl)-5-(methoxy)pyridine-2-carboxamide in solution in the carrier (methylcellulose (MC) (0.6%)+Tween-80 (0.5%)) is administered by gavage between the 2nd and 3rd injection of MPTP and just after the final injection of MPTP, and then twice a day for 17 days at the total daily doses of 0.015 and 0.050 mg/kg. Twenty-four hours after the final treatment, the striatum is removed and the dopamine uptake sites are quantified using a GBR12935 (1-[2-(diphenylmethoxy)ethyl]-4-(3-phenylpropyl)piperazine) binding method.

[3] = cited from earlier work
[4] = oral gavage in PEG200, 0.1 mg/kg

Row | Structure (SMILES) | emetic effects (retching and vomiting) [1, 4] | density of the dopamine uptake sites, % of the level observed in the normal animals ([2]; total daily dose 0.015 mg/kg/d) | density of the dopamine uptake sites, % of the level observed in the normal animals ([2]; total daily dose 0.050 mg/kg/d) | emetic effects (retching and vomiting) ([1]; oral gavage in PEG200, 0.05 mg/kg) | emetic effects in clinical studies [3]
1 | COc1cnc(C(=O)Nc2c(Cl)c[n+]([O-])cc2Cl)cc1OCC1CC1 [4-cyclopropylmethoxy-N-(3,5-dichloro-1-oxidopyridin-4-yl)-5-(methoxy)pyridine-2-carboxamide] | neither retching nor vomiting | 82% | 85% | – | –
2 | COc1ccc([C@@H]2CNC(=O)C2)cc1OC1CCCC1 [(R)-(−)-rolipram, (4R)-4-[3-(cyclopentyloxy)-4-methoxyphenyl]pyrrolidine-2-one] | induce vomiting | – | – | induce vomiting | –
3 | COc1ccc(C2CNC(=O)C2)cc1OC1CCCC1 (stereo not drawn) [rolipram] | – | – | – | – | induce emetic effects
